# Columns and labels:
# Plasmodium falciparum [1] = test: Antimalarial activity against Plasmodium falciparum 3D7 assessed as parasitic growth inhibition measured after 42 hrs by [3H]hypoxanthine incorporation assay; format: functional, organism-based
# Plasmodium falciparum [2] = test: Antimalarial activity against Chloroquine resistant Plasmodium falciparum Dd2 assessed as parasitic growth inhibition measured after 3 days by ELISA assay; format: functional, organism-based; conditions: Dd2, 72 h
# Plasmodium falciparum [3] = test: Antimalarial activity against Chloroquine sensitive Plasmodium falciparum 3D7 assessed as parasitic growth inhibition measured after 3 days by ELISA assay; format: functional, organism-based; conditions: 3D7, 72 h
# Plasmodium falciparum [4] = test: Antimalarial activity against Chloroquine sensitive Plasmodium falciparum RKL-2 assessed as parasitic growth inhibition measured after 36 to 40 hrs by Giemsa staining based assay; format: functional, organism-based
# Plasmodium falciparum [5] = test: Antimalarial activity against Chloroquine sensitive Plasmodium falciparum RKL-9 assessed as parasitic growth inhibition measured after 36 to 40 hrs by Giemsa staining based assay; format: functional, organism-based
# Plasmodium falciparum [6] = test: Antimalarial activity against Chloroquine resistant Plasmodium falciparum assessed as parasitic growth inhibition by microscopic anlaysis; format: functional, organism-based
# Plasmodium falciparum [7] = test: Antimalarial activity against Chloroquine-pyrimethamine sensitive Plasmodium falciparum D6 assessed as parasitic growth inhibition measured after 48 hrs; format: functional, organism-based; conditions: D6, 48 h
# Plasmodium falciparum [8] = test: Antimalarial activity against Chloroquine-pyrimethamine resistant Plasmodium falciparum W2 assessed as parasitic growth inhibition measured after 48 hrs; format: functional, organism-based; conditions: W2, 48 h
# Hemozoin = test: Inhibition of beta-hematin formation
# Plasmodium falciparum [9] = test: Antimalarial activity against Chloroquine sensitive Plasmodium falciparum assessed as parasitic growth inhibition; format: functional, organism-based
# Plasmodium falciparum [10] = test: Antimalarial activity against mefloquine resistant Plasmodium falciparum F32 assessed as parasitic growth inhibition measured after 48 hrs; format: functional, organism-based; conditions: F32, 48 h
# Plasmodium falciparum [11] = test: Antimalarial activity against chloroquine resistant Plasmodium falciparum K1 assessed as parasitic growth inhibition measured after 48 hrs; format: functional, organism-based; conditions: K1, 48 h
# Plasmodium falciparum [12] = test: Antimalarial activity against mefloquine resistant Plasmodium falciparum FcB1 assessed as parasitic growth inhibition measured after 48 hrs; format: functional, organism-based; conditions: FcB1, 48 h
# Plasmodium falciparum [13] = test: Antimalarial activity against mefloquine resistant Plasmodium falciparum Thai assessed as parasitic growth inhibition measured after 48 hrs; format: functional, organism-based
# Plasmodium falciparum [14] = test: Antimalarial activity against chloroquine resistant Plasmodium falciparum FcB1 assessed as parasitic growth inhibition measured after 48 hrs; format: functional, organism-based; conditions: FcB1, 48 h
# Plasmodium falciparum [15] = test: Antimalarial activity against mefloquine resistant Plasmodium falciparum K1 assessed as parasitic growth inhibition measured after 48 hrs; format: functional, organism-based; conditions: K1, 48 h
# Plasmodium falciparum [16] = test: Antimalarial activity against chloroquine resistant Plasmodium falciparum Thai assessed as parasitic growth inhibition measured after 48 hrs; format: functional, organism-based
# Plasmodium falciparum [17] = test: Antimalarial activity against chloroquine resistant Plasmodium falciparum F32 assessed as parasitic growth inhibition measured after 48 hrs; format: functional, organism-based; conditions: F32, 48 h
# Plasmodium falciparum [18] = test: Antimalarial activity against chloroquine sensitive Plasmodium falciparum 3D7 assessed as parasitic growth inhibition by SYBR Green I dye based assay; format: functional, organism-based
# Plasmodium falciparum [19] = test: Antimalarial activity against Chloroquine sensitive Plasmodium falciparum 3D7 assessed as parasitic growth inhibition measured after 24 hrs; format: functional, organism-based; conditions: 3D7, 24 h
structure (smiles),measurement,setting,value
COc1ccc2cc3[n+](cc2c1OCc1cn(-c2ccc(S(=O)(=O)Nc4ccc(F)cc4)cc2)nn1)CCc1cc2c(cc1-3)OCO2.[Cl-],IC50,Plasmodium falciparum [1],0.15 µg/mL
COc1ccc2cc3[n+](cc2c1OCc1cn(-c2ccc(S(=O)(=O)Nc4ccc(Cl)cc4)cc2)nn1)CCc1cc2c(cc1-3)OCO2.[Cl-],IC50,Plasmodium falciparum [1],0.1 µg/mL
COc1cc(NC(C)CCCNC(=O)CCCC(=O)NO)c2ncccc2c1 (stereo unspecified),IC50,Plasmodium falciparum [2],1900 nM
same,IC50,Plasmodium falciparum [3],400 nM
O=C1C(O)=C(NCCNc2ccnc3cc(Cl)ccc23)C(=O)c2ccccc21,IC50,Plasmodium falciparum [4],391 nM
same,IC50,Plasmodium falciparum [5],684 nM
O=C(NNC(=S)Nc1ccccc1)c1cc(-c2c(F)cccc2F)nc2ccc(C(F)(F)F)cc12,IC50,Plasmodium falciparum [6],0.19 µg/mL
O=C(NNC(=S)Nc1c(F)cccc1F)c1cc(-c2ccccc2Br)nc2c(Cl)cc(C(F)(F)F)cc12,IC50,Plasmodium falciparum [6],0.36 µg/mL
O=C(NNC(=S)Nc1cc(Cl)cc(Cl)c1)c1cc(-c2ccc(F)cc2F)nc2cc(Cl)c(F)cc12,IC50,Plasmodium falciparum [6],0.17 µg/mL
N=C(N=C(N)N)SCCNc1ccnc2cc(C(F)(F)F)ccc12,IC50,Plasmodium falciparum [7],1860 nM
same,IC50,Plasmodium falciparum [8],2950 nM
COc1cc2c(cc1OC)CC(Nc1ccnc3cc(Cl)ccc13)C2,IC50,Hemozoin,390 nM
CC1=C(C(=O)Nc2ccc(Br)cn2)C(c2cn(-c3ccccc3)nc2-c2ccc(Cl)cc2)NC(=O)N1 (stereo unspecified),IC50,Plasmodium falciparum [9],0.03 µg/mL
N=C(N=C(N)N)SCCCCNc1ccnc2cc(C(F)(F)F)ccc12,IC50,Plasmodium falciparum [7],2800 nM
same,IC50,Plasmodium falciparum [8],6060 nM
O=C1C(O)=C(N2CCN(c3ccnc4cc(Cl)ccc34)CC2)C(=O)c2ccccc21,IC50,Plasmodium falciparum [4],391 nM
same,IC50,Plasmodium falciparum [5],1090 nM
CC.Fc1ccc(Nc2nc(NCCCNc3ccnc4cc(Cl)ccc34)nc(Nc3ccc(F)cc3)n2)cc1,IC50,Plasmodium falciparum [4],51.5 µg/mL
CC1=C(C(=O)Nc2ccccn2)C(c2cn(-c3ccccc3)nc2-c2ccc(F)cc2)NC(=O)N1 (stereo unspecified),IC50,Plasmodium falciparum [9],0.03 µg/mL
C[C@H]1C[C@@H]2C[C@@H]3CC[C@H]4OC(C(F)(F)F)=C(COCCOC(=O)CCC(=O)OC(c5cc(C(F)(F)F)nc6c(C(F)(F)F)cccc56)C5CCCCN5)[C@H](C1)[C@]24OO3 (stereo partly specified),IC50,Plasmodium falciparum [10],2.4 nM
same,IC50,Plasmodium falciparum [11],2.4 nM
same,IC50,Plasmodium falciparum [12],2.4 nM
same,IC50,Plasmodium falciparum [13],2.4 nM
same,IC50,Plasmodium falciparum [14],2.4 nM
same,IC50,Plasmodium falciparum [15],2.4 nM
same,IC50,Plasmodium falciparum [16],2.4 nM
same,IC50,Plasmodium falciparum [17],2.4 nM
N=C(N=C(N)N)SCCCNc1ccnc2cc(Cl)ccc12,IC50,Plasmodium falciparum [7],1560 nM
same,IC50,Plasmodium falciparum [8],2310 nM
COc1cc(NC(C)CCCNC(=O)c2ccc(C(=O)NO)cc2)c2ncccc2c1 (stereo unspecified),IC50,Plasmodium falciparum [2],1200 nM
same,IC50,Plasmodium falciparum [3],600 nM
N=C(N=C(N)N)SCCCNc1ccnc2cc(C(F)(F)F)ccc12,IC50,Plasmodium falciparum [7],2850 nM
same,IC50,Plasmodium falciparum [8],3210 nM
CCCN1C(=O)c2ccc3c4c(ccc(c24)C1=O)C(=O)C(CNc1c2ccc(Cl)cc2nc2ccc(OC)cc12)C3=O,IC50,Plasmodium falciparum [18],3.65 nM
Cc1ccc(-c2nn(-c3nc4ccccc4s3)cc2/C=N\c2ccc(Cl)cc2)cc1,EC50,Plasmodium falciparum [19],1980 nM
CC1=C(C(=O)Nc2ccc(Br)cn2)C(c2cn(-c3ccccc3)nc2-c2ccc([N+](=O)[O-])cc2)NC(=O)N1 (stereo unspecified),IC50,Plasmodium falciparum [9],0.06 µg/mL
